From patent publication US12084442B2, “Naphthyridinone derivatives for the treatment of a disease or disorder” (Novartis AG, priority 2021, dated 2024)

How the values were obtained:
GIRK1/4 = GIRK1/4 (Homo sapiens (Human), UniProt P48544+P48549); test: GIRK1/4 activity assay (Quattro/IonWorks population patch clamp, inward potassium current); type: cell-based; details: GIRK1/4 HEK293 stable cells; current inhibition normalized to DMSO-only control
Method: The GIRK1/4 activity of a compound according to the present invention was assessed by the following in vitro method.
• a. External buffer: 10 mM NaCl, 50 mM Na Gluconate, 80 mM K Gluconate, 1.8 mM CaCl2, 1 mM MgCl2, 10 mM HEPES, 10 mM Glucose, pH 7.4; osmolarity 300-310 Osm/L. • b. Internal buffer: 30 mM KCl, 100 mM K Gluconate, 1 mM MgCl2, 10 mM HEPES, 1 mM EGTA, 10 mM NaCl, pH 7.2; osmolarity 284-292 Osm/L. Compounds: • c. Prepare seven-fold compound dilution series (10 mM to 20 uM) in 100% DMSO, in 384-well polypropylene plates. • d. Propafenone (Sigma Aldrich, catalog number P4670) was used as a positive control and DMSO for neutral control • e. Resuspend 1 μl of compounds in DMSO into 66.7 μl external buffer in 384-well polypropylene plate and load into Plate 1 section of Molecular Devices Quattro® Quattro Setup: • f. Load 384-well Population Patch Plate (Molecular Devices #9000-0902) into Quattro • g. Fill Quattro F-soak trough with 20% DMSO and 50% EtOH • h. Fill Quattro buffer trough with external buffer • i. Attach internal buffer flask to Quattro internal buffer tubing • j. Attach PBS (Phosphate Buffered Saline, minus Ca^++ and Mg^++, pH7.4) bottle to F-head & E-head wash on Quattro Antibiotic: • k. Resuspend 5.1-5.8 mg amphotericin B (Sigma Aldrich, catalog number A2411) in 175 μl DMSO • l. Add the resulting solution to 50 mL internal buffer and attach to antibiotic tubing port on Quattro Cells: • m. Use GIRK1/4 HEK293 stable cells (obtained from ChanTest, 14656 Neo Parkway, Cleveland, Ohio 44128) grown to ˜80% confluency in the following cell culture medium: DMEM containing 10% (v/v) Fetal Bovine Serum, Penicillin/Streptomycin (at “IX” concentration from a 100× stock), 0.5 mg/mL G418 and 0.1 mg/mL Zeocin. • n. Detach cells using Detachin (Genlantis, 11011 Torreyana, San Diego, CA 92121), washed with PBS (minus Ca^++ and Mg^++) and resuspend in external buffer (5 mL final volume at 2.0-2.1×10^6 cells/mL) • o. Load into cell trough of Quattro Assay Protocol:
Quattro was controlled using IonWorks v2 software to perform the following steps: • p. Added 3.5 μl cells plus 3.5 μl external buffer to wells of Quattro Patch Plate® • q. Circulated amphotericin B and internal buffer onto cells • r. Applied the following voltage protocol: Pulse 1: 15 mV for 300 milliseconds (ms), followed by Pulse 2: −120 mV for 400 ms, then Pulse 3: −15 mV for 400 ms, and finally Pulse 4: −120 mV to 40 mV over 500 ms (this is a voltage ramp). • s. Measured magnitude of inward potassium current at time point between 1200-1220 ms from start of Pulse 1 (i.e., during the voltage ramp phase). • t. Added 3.5 μl of diluted compounds (or DMSO) to wells and repeated […] (final compound concentrations are 50 uM to 0.1 uM, and each concentration was tested in quadruplicate—i.e., in 4 separate wells). • u. The difference between current magnitude pre vs. post-compound gave a measure of GIRK1/4 inhibition. Data Analysis:
IC50 values were calculated by plotting the percentage of current inhibition (normalized to the DMSO-only control) as a function of compound concentration using standard data analysis software.

[1] = Pharmacokinetic properties in rats (IV and PO, whole blood LC-MS/MS); type: in vivo, Spargue Dawley/CD, male; details: for Rat AUC0-24 h 3 mg/kg: 3 mg/kg PO, suspension; for Rat AUC0-24 h 3 mg/kg / clearance: whole blood; for clearance: male, Sprague Dawley/CD, rat, IV dosing (0.3-1 mg/kg), CL = Dose/AUCinf; for Rat F: oral bioavailability, PO 3 mg/kg vs IV
Method: The pharmacokinetic properties of the compounds in rats were assessed by the following in vivo studies as described below.
At least four days before first drug administration, the rats (250-350 g) were anesthetized and, under aseptic conditions, catheters were surgically implanted into the left and right jugular veins (one for blood collection and the other one for intravenous injection). The catheters were exteriorized and fixed at the neck. For analgesic treatment, animals received analgesics before surgery and subsequently twice at appropriate times after surgery. The freely-moving animals equipped with catheters are kept individually in Macrolon cages, with free access to food and water throughout the experiment. After a recovery phase of at least 4 days, a single test compound was administered intravenously or orally, based upon the individual body weights.
The test articles were administered as solution in NMP:PEG 200 (10:90 v/v). Test articles where no solution can be obtained were rejected and not used in discrete or cassette dosing.
The test article were administered as suspension in MC:Tween 80:water (0.5:0.1:99.4 w/v/v).
The test article was administered as solution and as a bolus injection or as short I.V. infusion (30 seconds) via the left jugular vein catheter to conscious rats. The dose volume was 0.5 mL/kg body weight.
The test article was administered as a solution or suspension into the esophagus via a gavage tube to conscious rats. The dose volume was 5 mL/kg body weight. The exact start time of dosing and exact dose volume was noted.
Blood samples (20 μL) were collected from the right jugular vein catheter of cannulated animals (if JV catheter becomes non patent during the PK experiment (i.e., after dosing), blood can exceptionally be collected by tail vein puncture but it must be clearly specified into the in-life observations and data study rep) in tubes containing 10% of blood of 2% W/V K2 EDTA (2.0 mg/mL) at the different time intervals. Blood was collected following IV dosing at 0.083, 0.25, 0.5, 1, 2, 4, 7 and 24 h post dose. Blood was collected following PO dosing: 0.25, 0.5, 1, 2, 4, 7 and 24 h post dose.
The concentrations of compounds in whole blood were quantified using a liquid chromatography/mass spectrometry (LC-MS/MS) assay. 20 μL of each blood sample were precipitated with 100 μL of acetonitrile containing generic internal standards (carbamazepine/telmisartan/verapamil; c=50 ng/mL). The samples were vortexed thoroughly then centrifuged (5 min, 4° C.). The supernatant (80 μL) was transferred to a clean 96-well plate and mixed with 80 μL of water.
The samples were injected (1 to 20 μL) onto suitable analytical columns, using various isocratic methods and flow rates. Mobile phases typically consisting of 0.1% formic acid in water (solvent A) and 0.1% formic acid in acetonitrile (solvent B) with additional modifiers, if needed. Compounds and the internal standards were eluted at various retention times. The HPLC systems were interfaced to mass spectrometers. MS/MS analyses were carried out using electrospray ionization (ESI), typically in the positive ionization mode. Compounds and the internal standards were monitored using multiple reaction monitoring (MRM).
The standard curves employed for sample quantitation ranged over several log units. The lower limit of quantitation (LLOQ) in blood was determined and used as cutoff for the analytical sensitivity. Known amounts of the compounds were spiked into blood to create quality control samples with six known concentrations in singlets. The accuracy of the in vivo blood sample concentration determination was considered acceptable when the intra-assay accuracies obtained for the quality control samples were within 70% to 130% of the expected concentrations. Subsequently, from the time concentration data, pharmacokinetic parameters were calculated by non-compartmental regression analyses using an in house fitting program. […]

Chain of GIRK1/4 (P48549 whole entry): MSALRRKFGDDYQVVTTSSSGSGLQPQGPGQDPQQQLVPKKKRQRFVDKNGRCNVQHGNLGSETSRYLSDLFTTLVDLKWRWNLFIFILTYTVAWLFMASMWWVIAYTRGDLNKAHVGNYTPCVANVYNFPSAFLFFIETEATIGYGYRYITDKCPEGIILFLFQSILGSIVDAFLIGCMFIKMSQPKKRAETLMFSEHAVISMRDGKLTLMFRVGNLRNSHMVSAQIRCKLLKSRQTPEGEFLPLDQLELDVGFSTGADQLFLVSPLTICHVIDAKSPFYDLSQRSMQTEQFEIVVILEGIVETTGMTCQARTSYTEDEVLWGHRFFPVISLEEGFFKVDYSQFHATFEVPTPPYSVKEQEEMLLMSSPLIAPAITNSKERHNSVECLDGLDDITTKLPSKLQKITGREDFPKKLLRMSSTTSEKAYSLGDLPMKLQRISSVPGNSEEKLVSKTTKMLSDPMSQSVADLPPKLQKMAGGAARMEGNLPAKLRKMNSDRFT
Chain of GIRK1/4 (P48544 whole entry): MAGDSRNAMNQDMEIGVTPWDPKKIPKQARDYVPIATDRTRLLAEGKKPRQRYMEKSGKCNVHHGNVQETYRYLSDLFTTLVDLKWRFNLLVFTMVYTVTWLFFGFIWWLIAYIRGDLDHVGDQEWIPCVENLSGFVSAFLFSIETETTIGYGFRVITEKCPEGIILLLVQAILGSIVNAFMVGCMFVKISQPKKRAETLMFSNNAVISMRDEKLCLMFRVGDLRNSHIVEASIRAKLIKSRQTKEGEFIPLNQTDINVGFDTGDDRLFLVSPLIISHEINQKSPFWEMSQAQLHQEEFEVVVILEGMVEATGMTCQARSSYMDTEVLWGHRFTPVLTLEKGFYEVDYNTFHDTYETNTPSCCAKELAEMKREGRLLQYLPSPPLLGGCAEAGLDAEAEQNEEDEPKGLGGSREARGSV

Compound | IC50 (GIRK1/4) [nM] | Rat AUC0-24 h 3 mg/kg [1] [nMh] | clearance [1] [mL/min/kg] | Rat F [1] [%]
Cc1cc(=O)c2c(CC(C)S(C)(=O)=O)ncc(Cl)c2n1-c1c(Cl)cc(OCCO)cc1Cl (single isomer, unassigned) [Example 21, 8-Chloro-1-(2,6-dichloro-4-(2-hydroxyethoxy)phenyl)-2-methyl-5-(2-(methylsulfonyl)propyl)-1,6-naphthyridin-4(1H)-one] | 170 | 3200 | 10.4 | 34
Cc1cc(=O)c2c(OCC(=O)NCCO)ncc(Cl)c2n1-c1c(Cl)cc(OCCO)cc1Cl [Example 2, 2-((8-Chloro-1-(2,6-dichloro-4-(2-hydroxyethoxy)phenyl)-2-methyl-4-oxo-1,4-dihydro-1,6-naphthyridin-5-yl)oxy)-N-(2-hydroxyethyl)acetamide] | 220 | 1288 | 23 | 29
CNC(=O)CCOc1ncc(Cl)c2c1c(=O)cc(C)n2-c1c(Cl)cc(OCC(C)(C)O)cc1Cl [Example 3, 3-((8-Chloro-1-(2,6-dichloro-4-(2-hydroxy-2-methylpropoxy)phenyl)-2-methyl-4-oxo-1,4-dihydro-1,6-naphthyridin-5-yl)oxy)-N-methylpropanamide] | 220 | 7738 | 5.7 | 47
CNC(=O)COc1ncc(Cl)c2c1c(=O)cc(C)n2-c1c(Cl)cc(OCC(C)(C)O)cc1Cl [Example 4, 2-((8-Chloro-1-(2,6-dichloro-4-(2-hydroxy-2-methylpropoxy)phenyl)-2-methyl-4-oxo-1,4-dihydro-1,6-naphthyridin-5-yl)oxy)-N-methylacetamide] | 160 | 3674 | 5.5 | 22
CNC(=O)[C@@H](C)COc1ncc(Cl)c2c1c(=O)cc(C)n2-c1c(Cl)cc(OCCO)cc1Cl [Example 8, (S)-3-((8-Chloro-1-(2,6-dichloro-4-(2-hydroxyethoxy)phenyl)-2-methyl-4-oxo-1,4-dihydro-1,6-naphthyridin-5-yl)oxy)-N,2-dimethylpropanamide] | 70 | – | – | –
CNC(=O)CCOc1ncc(Cl)c2c1c(=O)cc(C)n2-c1c(Cl)cc(OC[C@H](C)O)cc1Cl [Example 10, (S)-3-((8-Chloro-1-(2,6-dichloro-4-(2-hydroxypropoxy)phenyl)-2-methyl-4-oxo-1,4-dihydro-1,6-naphthyridin-5-yl)oxy)-N-methylpropanamide] | 330 | – | – | –
CNC(=O)C(C)(C)COc1ncc(Cl)c2c1c(=O)cc(C)n2-c1c(Cl)cc(OCCO)cc1Cl [Example 11, 3-((8-Chloro-1-(2,6-dichloro-4-(2-hydroxyethoxy)phenyl)-2-methyl-4-oxo-1,4-dihydro-1,6-naphthyridin-5-yl)oxy)-N,2,2-trimethylpropanamide] | 160 | – | – | –
CNC(=O)[C@H](O)COc1ncc(Cl)c2c1c(=O)cc(C)n2-c1c(Cl)cc(OCCO)cc1Cl [Example 12, (R)-3-((8-Chloro-1-(2,6-dichloro-4-(2-hydroxyethoxy)phenyl)-2-methyl-4-oxo-1,4-dihydro-1,6-naphthyridin-5-yl)oxy)-2-hydroxy-N-methylpropanamide] | 200 | – | – | –
CNC(=O)[C@@H](O)COc1ncc(Cl)c2c1c(=O)cc(C)n2-c1c(Cl)cc(OCC(C)(C)O)cc1Cl [Example 14, (S)-3-((8-chloro-1-(2,6-dichloro-4-(2-hydroxy-2-methylpropoxy)phenyl)-2-methyl-4-oxo-1,4-dihydro-1,6-naphthyridin-5-yl)oxy)-2-hydroxy-N-methylpropanamide] | 170 | – | – | –
CNC(=O)C(F)(F)COc1ncc(Cl)c2c1c(=O)cc(C)n2-c1c(Cl)cc(OCCO)cc1Cl [Example 16, 3-((8-Chloro-1-(2,6-dichloro-4-(2-hydroxyethoxy)phenyl)-2-methyl-4-oxo-1,4-dihydro-1,6-naphthyridin-5-yl)oxy)-2,2-difluoro-N-methylpropanamide] | 30 | – | – | –
Cc1cc(=O)c2c(OCCC(N)=O)ncc(Cl)c2n1-c1c(Cl)cc(OCCO)cc1Cl [Example 18] | – | 1702 | 38.9 | 65
